This note sets out measurements from patent publication US12459921B2, “Isoindoline compound, preparation method, pharmaceutical composition and use thereof” (SHANGHAI INSTITUTE OF MATERIA MEDICA, CHINESE ACADEMY OF …, priority 2018, dated 2025).

The structures appear in SMILES notation. Bounds are passed on as bounds.

This assay concerns MM.1S cells. Nature of the assay: Inhibitory effect on the proliferation of MM.1S, MTS cell viability test. The following applies: Homo sapiens, MM1.S, 168 h, multiple myeloma MM.1S cells, 7 days incubation, read-out: Tumor cell inhibitory activity. It counts as cell-based. Here is the method: Method of tumor cell proliferation inhibition test: the inventors tested all the example compounds on hematologic tumor cells, multiple myeloma MMTs cell line and acute leukemia cell MV-4-11 cell line of some examples. The activity test method and results are as follows.
1. The Compound's Inhibitory Effect on the Proliferation of MM.1S, MTS Cell Viability Test:
MM.1S cells were cultured and collected with 1640 plus 10% fetal bovine serum. The cell concentration was diluted according to 7 days, and 180 ul cell suspension was added to each well of the 96-well cell plate to 20,000 cells. 20 ul of DMSO with a final concentration of 0.2% was added to the control wells. The compound was 5-fold diluted—from the 10 mM stock solution, and 20 ul was also added to each compound cell well (the final concentration of DMSO was 0.2%). The cells were placed in a 37° C., 5% CO2 incubator to incubate for 7 days. After the reaction solution was prepared according to the MTS kit (Promega, G5430), 20 μL was added to each well and incubated in a 37° C., 5% CO2 incubator for 3-4 h. Absorbance value at 490 nm was read with a microtiter plate, and 690 nm absorbance value was used as the background value. OD490-OD690 was used as the final initial data. The formula for calculating the inhibition rate of the compound is: inhibition rate=(ODDMSO-ODcompound)/(ODDMSO-Oblank)×100%. The compound's proliferation inhibition IC50 was fitted by Graph Pad Prism 5.0. The experiment was repeated three times, and the average and standard deviation was calculated according to the three parallel experiments.
Cell viability test results: **** represents cell viability IC50>20 μM, […] represents cell viability 1 μM<IC50<20 μM, ** represents cell viability 100 nM<IC50<1 μM, * represents cell viability IC50<100 nM.
Take `N#CC1(c2ccc(Cl)cc2)CCN(CCCOc2cccc3c2CN(C2CCC(=O)NC2=O)C3=O)CC1` (stereo not drawn) [Example 59, 4-(4-chlorophenyl)-1-(3-((2-(2,6-dioxopiperidine-3-)-1-oxoisoindoline-4-)oxy)propyl)piperidine-4-carbonitrile]: the IC50 was less than 100 nM.
In the case of `C[C@]1(N2Cc3c(OCCCN4CCC(C#N)(c5cccc(OC(F)(F)F)c5)CC4)cccc3C2=O)CCC(=O)NC1=O` [Example 60, (S)-1-(3-((2-(3-methyl-2,6-dioxopiperidine-3-)-1-oxoisoindoline-4-)oxy)propyl)-4-(3-(trifluoromethoxy)phenyl)piperidine-4-carbonitrile], the IC50 was in the range of 1000 to 20000 nM.
Turning to `N#CC1(c2ccccc2F)CCN(CCCOc2cccc3c2CN(C2CCC(=O)NC2=O)C3=O)CC1` (stereo not drawn) [Example 61, 1-(3-((2-(2,6-dioxopiperidine-3-)-1-oxoisoindoline-4-)oxy)propyl)-4-(2-fluorophenyl)piperidine-4-carbonitrile], the IC50 was in the range of 100 to 1000 nM.
With `C[C@]1(N2C(=O)c3cccc(OCCCN4CCC(C#N)(c5cccc(OC(F)(F)F)c5)CC4)c3C2=O)CCC(=O)NC1=O` [Example 62, (S)-1-(3-((2-(3-methyl-2,6-dioxopiperidine-3-)-1,3-dioxoisoindoline-4-)oxy)propyl)-4-(3-(trifluoromethoxy)phenyl)piperidine-4-carbonitrile] the figure was 1000 to 20000 nM.
`N#CC1(c2cccc(F)c2)CCN(CCCOc2cccc3c2CN(C2CCC(=O)NC2=O)C3=O)CC1` (stereo not drawn) [Example 63, 1-(3-((2-(2,6-dioxopiperidine-3-)-1-oxoisoindoline-4-)oxy)propyl)-4-(3-fluorophenyl)piperidine-4-carbonitrile]: the IC50 fell in the range of 100 to 1000 nM.
With `N#CC1(c2ccccc2Cl)CCN(CCOc2cccc3c2CN(C2CCC(=O)NC2=O)C3=O)CC1` (stereo not drawn) [Example 64, 4-(2-chlorophenyl)-1-(2-((2-(2,6-dioxopiperidine-3-)-1-oxoisoindoline-4-)oxy)ethyl) piperidine-4-carbonitrile] the figure was 100 to 1000 nM; with `N#CC1(c2ccc(F)cc2)CCN(CCCOc2cccc3c2CN(C2CCC(=O)NC2=O)C3=O)CC1` (stereo not drawn) [Example 65, 1-(3-((2-(2,6-dioxopiperidine-3-)-1-oxoisoindoline-4-)oxy)propyl)-4-(4-fluorophenyl)piperidine-4-carbonitrile], 100 to 1000 nM; with `N#CC1(c2cccc(OC(F)(F)F)c2)CCN(CCOc2cccc3c2CN(C2CCC(=O)NC2=O)C3=O)CC1` (stereo not drawn) [Example 66, 1-(2-((2-(2,6-dioxopiperidine-3-)-1-oxoisoindoline-4-)oxy)ethyl)-4-(3-(trifluoromethoxy)phenyl)piperidine-4-carbonitrile], 100 to 1000 nM.
On to `N#Cc1cccc(C2(C#N)CCN(CCCOc3cccc4c3CN(C3CCC(=O)NC3=O)C4=O)CC2)c1` (stereo not drawn) [Example 67, 4-(3-cyanophenyl)-1-(3-((2-(2,6-dioxopiperidine-3-)-1-oxoisoindoline-4-)oxy)propyl)piperidine-4-carbonitrile], for which the IC50 lay within 100 to 1000 nM.
With `N#CC1(c2c(F)cccc2Cl)CCN(CCCOc2cccc3c2CN(C2CCC(=O)NC2=O)C3=O)CC1` (stereo not drawn) [Example 68, 4-(2-chloro-6-fluorophenyl)-1-(3-((2-(2,6-dioxopiperidine-3-)-1-oxoisoindoline-4-)oxy)propyl)piperidine-4-carbonitrile] the figure was less than 100 nM; with `N#Cc1ccc(C2(C#N)CCN(CCCOc3cccc4c3CN(C3CCC(=O)NC3=O)C4=O)CC2)cc1` (stereo not drawn) [Example 69, 4-(4-cyanophenyl)-1-(3-((2-(2,6-dioxopiperidine-3-)-1-oxoisoindoline-4-)oxy)propyl)piperidine-4-carbonitrile], 100 to 1000 nM.
`N#CC1(c2ccc(Cl)cc2Cl)CCN(CCCOc2cccc3c2CN(C2CCC(=O)NC2=O)C3=O)CC1` (stereo not drawn) [Example 70, 4-(2,4-chlorophenyl)-1-(3-((2-(2,6-dioxopiperidine-3-)-1-oxoisoindoline-4-)oxy)propyl)piperidine-4-carbonitrile]: the IC50 is less than 100 nM.
With `N#CC1(c2cccc(OC(F)(F)F)c2)CCN(CCCOc2cccc3c2CN(C2CCC(=O)NC2=O)C3=O)CC1` (stereo not drawn) [Example 71, 1-(3-((2-(2,6-dioxopiperidine-3-)-1-oxoisoindoline-4-)oxy)propyl)-4-(3-trifluoromethoxyphenyl)piperidine-4-carbonitrile], the IC50 was less than 100 nM.
For the compound `N#CC1(c2ccc(Cl)cc2F)CCN(CCCOc2cccc3c2CN(C2CCC(=O)NC2=O)C3=O)CC1` (stereo not drawn) [Example 72, 4-(4-chloro-2-fluorophenyl)-1-(3-((2-(2,6-dioxopiperidine-3-)-1-oxoisoindoline-4-)oxy)propyl)piperidine-4-carbonitrile], the IC50 is less than 100 nM.
As for `N#CC1(c2ccc(OC(F)(F)F)cc2)CCN(CCCOc2cccc3c2CN(C2CCC(=O)NC2=O)C3=O)CC1` (stereo not drawn) [Example 73, 1-(3-((2-(2,6-dioxopiperidine-3-)-1-oxoisoindoline-4-)oxy)propyl)-4-(4-trifluoromethoxyphenyl)piperidine-4-carbonitrile], the IC50 was less than 100 nM.
With `N#CC1(c2ccc(F)cc2Cl)CCN(CCCOc2cccc3c2CN(C2CCC(=O)NC2=O)C3=O)CC1` (stereo not drawn) [Example 74, 4-(2-chloro-4-fluorophenyl)-1-(3-((2-(2,6-dioxopiperidine-3-)-1-oxoisoindoline-4-)oxy)propyl)piperidine-4-carbonitrile] the figure was less than 100 nM; with `N#CC1(c2cccc(Cl)c2)CCN(CCCCOc2cccc3c2CN(C2CCC(=O)NC2=O)C3=O)CC1` (stereo not drawn) [Example 75, 4-(3-chlorophenyl)-1-(4-((2-(2,6-dioxopiperidine-3-)-1-oxoisoindoline-4-)oxy)butyl)piperidine-4-carbonitrile], 100 to 1000 nM.
With `N#CC1(c2c(Cl)cccc2Cl)CCN(CCCOc2cccc3c2CN(C2CCC(=O)NC2=O)C3=O)CC1` (stereo not drawn) [Example 76, 4-(2,6-chlorophenyl)-1-(3-((2-(2,6-dioxopiperidine-3-)-1-oxoisoindoline-4-)oxy)propyl)piperidine-4-carbonitrile] the figure was less than 100 nM; with `N#CC1(c2ccc(Cl)cc2)CCN(CCCCOc2cccc3c2CN(C2CCC(=O)NC2=O)C3=O)CC1` (stereo not drawn) [Example 77, 4-(4-chlorophenyl)-1-(4-((2-(2,6-dioxopiperidine-3-)-1-oxoisoindoline-4-)oxy)butyl)piperidine-4-carbonitrile], 100 to 1000 nM.
Turning to `N#CC1(c2ccccc2OC(F)(F)F)CCN(CCCOc2cccc3c2CN(C2CCC(=O)NC2=O)C3=O)CC1` (stereo not drawn) [Example 78, 1-(3-((2-(2,6-dioxopiperidine-3-)-1-oxoisoindoline-4-)-oxy-)propyl)-4-(2-trifluoromethoxyphenyl)piperidine-4-carbonitrile], the IC50 is less than 100 nM.
Take `N#CC1(c2cccc(Cl)c2)CCN(CCCCCOc2cccc3c2CN(C2CCC(=O)NC2=O)C3=O)CC1` (stereo not drawn) [Example 79, 4-(3-chlorophenyl)-1-(5-((2-(2,6-dioxopiperidine-3-)-1-oxoisoindoline-4-)oxy)pentyl)piperidine-4-carbonitrile]: the IC50 was less than 100 nM.
On to `C[C@]1(N2Cc3c(OCCCN4CCC(C#N)(c5ccccc5Cl)CC4)cccc3C2=O)CCC(=O)NC1=O` [Example 80, (S)-4-(2-chlorophenyl)-1-(3-((2-(3-methyl-2,6-dioxopiperidine-3-)-1-oxoisoindoline-4-)oxy)propyl)piperidine-4-carbonitrile], for which the IC50 is 1000 to 20000 nM.
For the compound `N#CC1(c2ccc(Cl)cc2)CCN(CCCCCOc2cccc3c2CN(C2CCC(=O)NC2=O)C3=O)CC1` (stereo not drawn) [Example 81, 4-(4-chlorophenyl)-1-(5-((2-(2,6-dioxopiperidine-3-)-1-oxoisoindoline-4-)oxy)pentyl) piperidine-4-carbonitrile], the IC50 is less than 100 nM.
As to `N#CC1(c2ccccc2Cl)CCN(C(=O)CCCOc2cccc3c2CN(C2CCC(=O)NC2=O)C3=O)CC1` (stereo not drawn) [Example 82, 4-(2-chlorophenyl)-1-(4-((2-(2,6-dioxopiperidine-3-)-1-oxoisoindoline-4-)oxy)butyryl)piperidine-4-carbonitrile], the IC50 is 100 to 1000 nM.
As for `N#CC1(c2cccc(Cl)c2)CCN(C(=O)CCCOc2cccc3c2CN(C2CCC(=O)NC2=O)C3=O)CC1` (stereo not drawn) [Example 83, 4-(3-chlorophenyl)-1-(4-((2-(2,6-dioxopiperidine-3-)-1-oxoisoindoline-4-)oxy)butyryl) piperidine-4-carbonitrile], the IC50 was less than 100 nM.
With `N#CC1(c2ccc(Cl)cc2)CCN(C(=O)CCCOc2cccc3c2CN(C2CCC(=O)NC2=O)C3=O)CC1` (stereo not drawn) [Example 84, 4-(4-chlorophenyl)-1-(4-((2-(2,6-dioxopiperidine-3-)-1-oxoisoindoline-4-)oxy)butyryl)piperidine-4-carbonitrile] the figure was 100 to 1000 nM.
In the case of `N#CC1(c2ccccc2Cl)CCN(C(=O)CCCCOc2cccc3c2CN(C2CCC(=O)NC2=O)C3=O)CC1` (stereo not drawn) [Example 85, 4-(2-chlorophenyl)-1-(5-((2-(2,6-dioxopiperidine-3-)-1-oxoisoindoline-4-)oxy)valeryl)piperidine-4-carbonitrile], the IC50 is less than 100 nM.
